Experimental data as given in US20240158392A1 (Janssen Biotech, Inc., priority 2021, published 2024).
pIC50: −log10 of the molar value.

How the values were obtained:
[1] = molecular target: T1, SIK2 (Homo sapiens, UniProt Q9H0K1); assay: SIK2 Enzymatic Assay Version 1 (ADP Glo); format: biochemical; settings: enzyme 0.6 nM, 160 μM ATP and 140 μM HDAC5tide (each 2× final concentration); 30 minutes pre-incubation, 4 hours; ADPGlo luminescence; read-out: SIK2 ADP Glo IC50 (μM) (Test Example 1)
In short: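 Room-temperature ADP-Glo luminescence assay; SIK2 added at 0.6 nM (2× final) and preincubated with compound for 30 min. Reaction stopped with ADP-Glo Reagent for 40 min, then detection reagent for at least 30 min; no-peptide (ATP-only) wells served as negative control.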

[2] = molecular target: T1, SIK2; assay: SIK2 Enzymatic Assay High Version 2 (High ATP); format: biochemical
In short: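 At room temperature, enzyme (6 nM, 2× final) was preincubated with compound for 30 min, then 6 mM ATP and 400 μM HDAC5tide (both 2× final) were added for 2 h. ADP formed was measured by ADP-Glo Max (2 h reagent, 1 h detection) using luminescence.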

T1 sequence (Q9H0K1 whole entry, species assumed): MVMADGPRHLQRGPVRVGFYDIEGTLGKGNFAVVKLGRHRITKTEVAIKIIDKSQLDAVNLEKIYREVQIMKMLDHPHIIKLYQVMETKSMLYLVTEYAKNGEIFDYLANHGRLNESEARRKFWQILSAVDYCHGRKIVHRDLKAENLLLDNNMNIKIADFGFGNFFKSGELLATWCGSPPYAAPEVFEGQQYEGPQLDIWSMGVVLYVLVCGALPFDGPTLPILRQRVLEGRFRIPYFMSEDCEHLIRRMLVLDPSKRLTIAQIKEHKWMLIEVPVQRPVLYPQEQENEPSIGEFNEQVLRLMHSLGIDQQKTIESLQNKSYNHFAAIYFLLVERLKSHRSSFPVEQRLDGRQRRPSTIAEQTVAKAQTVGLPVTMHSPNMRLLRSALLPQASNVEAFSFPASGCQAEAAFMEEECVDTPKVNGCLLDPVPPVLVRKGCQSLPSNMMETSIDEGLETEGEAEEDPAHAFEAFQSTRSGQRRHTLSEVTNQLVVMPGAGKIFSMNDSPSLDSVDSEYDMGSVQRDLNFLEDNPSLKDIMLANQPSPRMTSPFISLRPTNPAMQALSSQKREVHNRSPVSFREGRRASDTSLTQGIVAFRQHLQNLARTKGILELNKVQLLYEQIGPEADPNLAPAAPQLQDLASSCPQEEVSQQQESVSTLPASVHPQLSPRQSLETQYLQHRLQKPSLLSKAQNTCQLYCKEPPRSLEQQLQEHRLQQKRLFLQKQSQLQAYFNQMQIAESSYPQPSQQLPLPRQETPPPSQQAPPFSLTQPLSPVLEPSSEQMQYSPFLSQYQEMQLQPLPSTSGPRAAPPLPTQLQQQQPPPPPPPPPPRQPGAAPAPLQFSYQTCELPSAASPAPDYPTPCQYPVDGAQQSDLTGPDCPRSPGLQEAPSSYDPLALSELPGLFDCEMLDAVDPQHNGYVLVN

| IC50 [1] | pIC50 [2] | Structure (SMILES) |
| --- | --- | --- |
| 0.0359 µM | 5.90 | CC1(C)CC(Oc2cnc(C#N)cc2-c2ccn3nc(NC(=O)C4CC4)cc3c2)CC(C)(C)N1 [Example 93, N-[5-[2-cyano-5-[(2,2,6,6-tetramethyl-4-piperidyl)oxy]-4-pyridyl]pyrazolo[1,5-a]pyridin-2-yl]cyclopropanecarboxamide] |
| 0.00358 µM | 7.22 | Cc1cc(-c2ccn3nc(NC(=O)C4CC4)cc3c2)c(O[C@@H]2CC[C@H](O)C2)cn1 (single isomer, unassigned) [Example 180, cis-N-(5-(5-(((1*R,3*S)-3-hydroxycyclopentyl)oxy)-2-methylpyridin-4-yl)pyrazolo[1,5-a]pyridin-2-yl)cyclopropanecarboxamide] |
| 0.000791 µM | 7.75 | CN1C[C@@H]2C[C@H]1C[C@H]2Oc1cnc(C#N)cc1-c1ccn2nc(NC(=O)C3CC3)cc2c1 (single isomer, unassigned) [Example 595, (1*S, 4*S, 5*R)—N-[5-[2-cyano-5-[(2-methyl-2-azabicyclo[2.2.1]heptan-5-yl)oxy]-4-pyridyl]pyrazolo[1,5-a]pyridin-2-yl]cyclopropanecarboxamide] |
| 0.0021 µM | 7.79 | N#Cc1cc(-c2ccn3nc(NC(=O)C4CC4)cc3c2)c(OCC2CNC2)cn1 [Example 23, N-[5-[5-(azetidin-3-ylmethoxy)-2-cyano-4-pyridyl]pyrazolo[1,5-a]pyridin-2-yl]cyclopropanecarboxamide] |
| 0.00509 µM | 6.94 | CN1CCC(COc2cnc(C#N)cc2-c2ccn3nc(NC(=O)C4CC4)cc3c2)CC1 [Example 51, N-[5-[2-cyano-5-[(1-methyl-4-piperidyl)methoxy]-4-pyridyl]pyrazolo[1,5-a]pyridin-2-yl]cyclopropanecarboxamide] |
| 0.000779 µM | 7.86 | CN[C@H]1C[C@@H](COc2cnc(C#N)cc2-c2ccn3nc(NC(=O)C4CC4)cc3c2)C1 [Example 98, N-(5-(2-cyano-5-(((1s,3s)-3-(methylamino)cyclobutyl)methoxy)pyridin-4-yl)pyrazolo[1,5-a]pyridin-2-yl)cyclopropanecarboxamide] |
| 0.000627 µM | 8.04 | N#Cc1cc(-c2ccn3nc(NC(=O)C4CC4)cc3c2)c(O[C@@H]2CCNC2)cn1 [Example 594, N-[5-[2-cyano-5-[(3R)-pyrrolidin-3-yl]oxy-4-pyridyl]pyrazolo[1,5-a]pyridin-2-yl]cyclopropanecarboxamide] |
| 0.00253 µM | 7.45 | N#Cc1cc(-c2ccn3nc(NC(=O)C4CC4)cc3c2)c(OCC2CC2)cn1 [Example 584, N-[5-[2-cyano-5-(cyclopropylmethoxy)-4-pyridyl]pyrazolo[1,5-a]pyridin-2-yl]cyclopropanecarboxamide] |
| 0.00436 µM | 7.23 | Cc1cc(-c2ccn3nc(NC(=O)C4CC4)cc3c2)c(OC[C@H]2CC[C@@H](O)CC2)cn1 [Example 148, cis-N-[5-[5-[(4-hydroxycyclohexyl)methoxy]-2-methyl-4-pyridyl]pyrazolo[1,5-a]pyridin-2-yl]cyclopropanecarboxamide] |
| 0.000666 µM | 7.62 | N#Cc1cc(-c2ccn3nc(NC(=O)C4CC4)cc3c2)c(OC[C@H]2C[C@@H](O)C2)cn1 [Example 68, N-[5-[2-cyano-5-[(3-hydroxycyclobutyl)methoxy]-4-pyridyl]pyrazolo[1,5-a]pyridin-2-yl]cyclopropanecarboxamide] |
| 0.00389 µM | 6.99 | Cn1ccc(Nc2cc3cc(-c4cc(C#N)ccc4OC[C@H]4CNCCO4)ccn3n2)n1 [Example 566, 3-[2-[(1-methylpyrazol-3-yl)amino]pyrazolo[1,5-a]pyridin-5-yl]-4-[[(2R)-morpholin-2-yl]methoxy]benzonitrile] |
| 0.00338 µM | 7.31 | CN1CC[C@@H](COc2cnc(C#N)cc2-c2ccn3nc(Nc4ccccc4)cc3c2)C1 [Example 106, 4-(2-anilinopyrazolo[1,5-a]pyridin-5-yl)-5-[[(3R)-1-methylpyrrolidin-3-yl]methoxy]pyridine-2-carbonitrile] |
| 0.000337 µM | 8.18 | N#CCN1CC[C@H](Oc2cnc(C#N)cc2-c2ccn3nc(NC(=O)C4CC4)cc3c2)C1 [Example 114, (S)—N-[5-[2-cyano-5-[(3S)-1-(cyanomethyl)pyrrolidin-3-yl]oxy-4-pyridyl]pyrazolo[1,5-a]pyridin-2-yl]cyclopropanecarboxamide] |
| 0.00705 µM | 6.95 | N#Cc1cc(-c2ccn3nc(NC(=O)C4CC4)cc3c2)c(OC2CNC2)cn1 [Example 31, N-[5-[5-(azetidin-3-yloxy)-2-cyano-4-pyridyl]pyrazolo[1,5-a]pyridin-2-yl]cyclopropanecarboxamide] |
| 0.00757 µM | 6.60 | Cc1cc(-c2ccn3nc(Nc4ccccn4)cc3c2)c(OC2CN(C)C2)cn1 [Example 567, 5-[2-methyl-5-(1-methylazetidin-3-yl)oxy-4-pyridyl]-N-(2-pyridyl)pyrazolo[1,5-a]pyridin-2-amine] |
| 0.00256 µM | 7.29 | CN1CCC(Oc2cnc(C#N)cc2-c2ccn3nc(NC(=O)C4CC4)cc3c2)CC1 [Example 85, N-[5-[2-cyano-5-[(1-methyl-4-piperidyl)oxy]-4-pyridyl]pyrazolo[1,5-a]pyridin-2-yl]cyclopropanecarboxamide] |
| 0.000641 µM | 7.87 | N#Cc1cc(-c2ccn3nc(NC(=O)C4CC4)cc3c2)c(OC[C@H]2CC[C@H](O)CC2)cn1 [Example 53, trans-N-(5-(2-Cyano-5-(((1r,4r)-4-hydroxycyclohexyl)methoxy)pyridin-4-yl)pyrazolo[1,5-a]pyridin-2-yl)cyclopropanecarboxamide] |
| 0.00149 µM | 7.95 | N#Cc1cc(-c2ccn3nc(NC(=O)C4CC4)cc3c2)c(O[C@H]2CCNC2)cn1 [Example 6, (S)—N-(5-(2-cyano-5-(pyrrolidin-3-yloxy)pyridin-4-yl)pyrazolo[1,5-a]pyridin-2-yl)cyclopropanecarboxamide] |
| 0.00527 µM | 6.69 | COCCN1CC[C@H](Oc2cnc(C#N)cc2-c2ccn3nc(NC(=O)C4CC4)cc3c2)C1 [Example 108, (S)—N-[5-[2-cyano-5-[(3S)-1-(2-methoxyethyl)pyrrolidin-3-yl]oxy-4-pyridyl]pyrazolo[1,5-a]pyridin-2-yl]cyclopropanecarboxamide] |
| 0.00236 µM | 7.50 | Cc1cc(-c2ccn3nc(Nc4ccn(C)n4)cc3c2)c(O[C@H]2CC[C@H](O)CC2)cn1 [Example 181, trans-4-[[6-methyl-4-[2-[(1-methylpyrazol-3-yl)amino]pyrazolo[1,5-a]pyridin-5-yl]-3-pyridyl]oxy]cyclohexanol] |
| 0.000647 µM | 8.10 | N#Cc1cc(-c2ccn3nc(NC(=O)C4CC4)cc3c2)c(OC[C@H]2C[C@H](N)C2)cn1 [Example 591, N-(5-(5-(((1r,3r)-3-aminocyclobutyl)methoxy)-2-cyanopyridin-4-yl)pyrazolo[1,5-a]pyridin-2-yl)cyclopropanecarboxamide] |

| Structure (SMILES) | IC50 [1] | pIC50 [2] |
| --- | --- | --- |
| Cc1cc(-c2ccn3nc(NC(=O)C4CC4)cc3c2)c(O[C@@H]2CC[C@H](N)C2)cn1 [Example 152, N-[5-[5-[(1R,3S)-3-aminocyclopentoxy]-2-methyl-4-pyridyl]pyrazolo[1,5-a]pyridin-2-yl]cyclopropanecarboxamide] | 0.00378 µM | 7.15 |
